Source: patent US20130324437A1, “METHOD FOR IDENTIFYING ANTIMICROBIAL COMPOUNDS AND DETERMINING ANTIBIOTIC SENSITIVITY” (THE REGENTS OF THE UNIVERSITY OF CALIFORNIA, priority 2010, published 2013)
≈ marks a conversion by molar mass, not a printed value. Like-named read-outs stand apart in the source and are kept apart here.

Experiments:
Bacillus subtilis = test: Cytological profiling of Bacillus subtilis (FM 4-64, DAPI, Sytox Green); format: cell-based; conditions: FIG. 8
Protocol: (§1) FIG. 8. Affect of various treatments on Bacillus subtilis cell architecture and permeability. (A-J) Cytological profiling. Cells were stained with the membrane stain FM 4-64 (red) and the membrane impermeable nucleotide stains Sytox Green (green) and DAPI (blue) and visualized 2 hours after treatment unless otherwise noted. […] Cells imaged after 1 hr of treatment. […] Cells were imaged after 8 hours. (K) Cell permeability as assessed by Sytox staining intensity per pixel.
The effects of these drugs on the Gram positive bacterium Bacillus subtilis was determined using the fluorescent membrane stain FM 4-64 and two nucleotide stains that are membrane impermeable (DAPI and Sytox).

[1] = tested on: proton motive force (PMF); test: DiSC3(5) fluorometer assay of proton motive force; format: cell-based, Bacillus subtilis; conditions: vancomycin at the MIC
Protocol: as §1
The fluorescent stain DiSC3(5) was used in a fluorometer assay, in which cells with a decreased PMF show increased fluorescence.

E. coli imp strain = test: Cytological profiling of E. coli imp strain (DAPI staining intensity); format: cell-based, Escherichia coli; conditions: 10 minute exposure, FIG. 10
Protocol: FIG. 10. Measurements of DAPI staining for single cells after 10 minute exposure to nisin, Spirohexenolide A, chlorothricin, and DMSO. […] Cells treated with nisin, SpiroA, and chlorothricin show increased fluorescence comparted to untreated control.
Cytological profiling was used to determine the MOA of spirohexenolide A. A culture of the E. coli imp strain was grown in LB media at 30° C. and spirohexenolide A was added at various concentrations. After either 10 minutes or two hours, samples were stained with FM 4-64 and DAPI for examination with a fluorescence microscope. The cytological profile of spirohexenolide A was identical to that for nisin, a compound that forms channels in the membrane. Chromosome stains such as DAPI and Sytox green are partially excluded from the cell by the cytoplasmic membrane in untreated cells, but are taken up in cells treated with permeablizers such as nisin.

[2] = tested on: Escherichia coli and Bacillus subtilis cells; test: Summary of cytological profiles by mechanism of action (FIG. 1); format: cell-based; conditions: example compound of the MOA class
Protocol: FIG. 1. Summary of cytological profiles for drugs with the indicated mechanisms of action (MOA).
To determine if different classes of antimicrobials can be distinguished based on cytological parameters, comparative cytological analysis of Escherichia coli and Bacillus subtilis cells treated with several different classes of antibiotics was performed. […] Also included were nonspecific inhibitors such as bleach, ethidium bromide, and sodium docecyl sulfate. […] This analysis is expanded to molecules with unknown MOAs as described below.

[3] = tested on: E. coli strains JP750 or W3110; test: Determination of MIC (growth in LB with antibiotic); format: cell-based; conditions: Escherichia coli, read-out: minimal inhibitory concentration (MIC)
Protocol: The minimal inhibitory concentration (MIC) of each antibiotic was determined for E. coli strains JP750 or W3110, and for Bacillus subtilis strain PY79. A test tube containing 5 ml of LB was inoculated with a single colony and grown until the culture reached a density of approximately 2×10^8 cells/ml. Small inoculums (20 μl) of this culture were then diluted into LB containing various concentrations of antibiotic ranging from 0 to 200 μg/ml and the cultures were incubated overnight at 30° C. The MIC was the lowest concentration that blocked growth.

E. coli strain JP750 [4] = format: cell-based, Escherichia coli; conditions: for chromosome morphology: 2 hours treatment; for cell length: cell elongation, FIG. 2 / FIG. 3; for chromosomes exhibiting doughnut or ring shape: lethal dose (MIC), 2 hours, n=50
Protocol: The dose-dependent cytological profiles for the various classes of antibiotics was determined. In general, a series of cultures of the appropriate strain were grown in LB at 30° C. until the cultures reached a density of approximately 2×10^8 cells/ml, at which point the compound of interest was added so that the final concentrations ranged from 0 to 200 μg/ml. For each compound, samples representing ⅕×, 1× and 5× the MIC were examined. Samples were taken at various times after addition of drug (ranging from 0.2 to 3 hours). The cells were stained with FM 4-64 (1 μg/ml) to visualize the cell membranes and DAPI (5 μg/ml) to visualize the chromosome (Pogliano et al. (1999) Mol. Microbiol. 31:1149).
Images of each stain and any fluorescently-tagged fusion protein present in the strain were then captured using a high resolution microscope. Cell length and width, chromosome length and shape, distance of the chromosome from each cell pole, the number of chromosomes per cell, and the presence and distribution of GFP (or GFP fusions) present within the cells were measured.
Strain JP750 expresses a SeqA-GFP fusion from an IPTG dependent promoter. SeqA-GFP forms fluorescent foci that indicate the position of DNA replication forks/hemimethylated DNA within the cell (Brendler et al. (2000) EMBO 19:6249). After two hours of growth, samples were taken, stained with FM 4-64 (1 μg/ml) to visualize the cell membranes, and DAPI (5 μg/ml) to visualize the chromosome.

E. coli = test: Growth curve (optical density at 600 nm); format: cell-based, Escherichia coli
[5] = tested on: gram positive bacteria and the E. coli imp mutant; conditions: Kang et al. (2009); Pache & Champman (1972); cited from earlier work
E. coli strain JP750 [6] = conditions: Pogliano et al. 1997; cited from earlier work

nisin
cytological phenotype (membrane, chromosome, permeability) (Bacillus subtilis): increased DAPI and Sytox staining | effect on proton motive force / membrane polarization [1]: rapidly collapse the proton motive force (PMF) | DAPI staining intensity relative to untreated (WT) cells (E. coli imp strain): 5 × | cytological profile (FIG. 1 summary) [2]: show increased permeability at early times

COc1cc(Cc2cnc(N)nc2N)cc(OC)c1OC [trimethoprim]
cytological profile (FIG. 1 summary) [2]: condense the chromosome without affecting cell width

CCn1cc(C(=O)O)c(=O)c2ccc(C)nc21 [nalidixic acid]
MIC [3]: 0.5 µg/mL (≈ 2.15 µM) | chromosome morphology (E. coli strain JP750 [4]): elongated chromosomes | SeqA-GFP foci distribution (E. coli strain JP750 [4]; LB, 30° C., FIG. 2): highly elongated chromosomes in which the SeqA foci are clustered together | cell length (E. coli strain JP750 [4]): caused elongation | effect on growth (optical density at 600 nm) (E. coli; five-fold below the MIC): no detectable effect on growth | effect on growth (E. coli; lethal dose (1×MIC)): reduced growth | cytological profile (FIG. 1 summary) [2]: produces elongated cells with centrally localized and fragmented DNA

CN[C@H](CC(C)C)C(=O)N[C@H]1C(=O)N[C@@H](CC(N)=O)C(=O)N[C@H]2C(=O)N[C@H]3C(=O)N[C@H](C(=O)N[C@H](C(=O)O)c4cc(O)cc(O)c4-c4cc3ccc4O)[C@H](O)c3ccc(c(Cl)c3)Oc3cc2cc(c3O[C@@H]2O[C@H](CO)[C@@H](O)[C@H](O)[C@H]2O[C@H]2C[C@](C)(N)[C@H](O)[C@H](C)O2)Oc2ccc(cc2Cl)[C@H]1O [vancomycin]
cytological phenotype (membrane, chromosome, permeability) (Bacillus subtilis): internal membrane vesicles and increased DAPI and Sytox permeability in a subset of the cells | effect on proton motive force / membrane polarization [1]: no effect on PMF | cytological profile (FIG. 1 summary) [2]: produces large internal membrane vesicles

NC[C@H]1O[C@H](O[C@H]2[C@H](O)[C@@H](O[C@H]3O[C@H](CO)[C@@H](O)[C@H](N)[C@H]3O)[C@H](N)C[C@@H]2N)[C@H](O)[C@@H](O)[C@@H]1O [kanamycin]
MIC ([3]; LB, overnight at 30° C.): 50 µg/mL (≈ 103 µM)

[Na+].[O-]Cl [bleach]
cytological profile (FIG. 1 summary) [2]: causes the chromosome to condense into a dramatic ribbon-like structure

N#CC(C#N)=NNc1cccc(Cl)c1 [CCCP]
cytological phenotype (membrane, chromosome, permeability) (Bacillus subtilis): cells with uneven membrane staining and decondensed chromosomes | effect on proton motive force / membrane polarization [1]: rapidly depolarizes the membranes

[H]/N=C(/N)N[C@H]1[C@H](O)[C@@H](O)[C@H](O[C@@H]2O[C@@H](C)[C@](O)(C=O)[C@H]2O[C@@H]2O[C@@H](CO)[C@H](O)[C@@H](O)[C@@H]2NC)[C@@H](N/C(N)=N\[H])[C@@H]1O [streptomycin]
MIC ([3]; LB, overnight at 30° C.): 50 µg/mL (≈ 86 µM) | chromosome morphology (E. coli strain JP750 [4]): condensed chromosomes but not ring formation

CN(C)[C@@H]1C(O)=C(C(N)=O)C(=O)[C@@]2(O)C(O)=C3C(=O)c4c(O)cccc4[C@@](C)(O)[C@H]3C[C@@H]12 [tetracycline]
MIC ([3]; LB, overnight at 30° C.): 20 µg/mL (≈ 45 µM) | chromosomes exhibiting doughnut or ring shape (E. coli strain JP750 [4]): 98%

CC1(C)S[C@@H]2[C@H](NC(=O)Cc3ccccc3)C(=O)N2[C@H]1C(=O)O [penicillin G]
cytological phenotype (membrane, chromosome, permeability) (Bacillus subtilis): cells with condensed chromosomes that lyse at various times | cytological profile (FIG. 1 summary) [2]: causes chromosome condensation and lysis

C[C@@H](O)[C@H](NC(=O)c1ccc(C#Cc2ccc(CN3CCOCC3)cc2)cc1)C(=O)NO [CHIR-090]
cytological profile (FIG. 1 summary) [2]: produces chains of cells with increased permeability

O=C(N[C@H](CO)[C@H](O)c1ccc([N+](=O)[O-])cc1)C(Cl)Cl [chloramphenicol]
MIC ([3]; LB, overnight at 30° C.): 5 µg/mL (≈ 15.5 µM) | chromosome morphology (E. coli strain JP750 [4]): caused chromosomes to form rings | distance between edge of chromosome and cell pole (E. coli strain JP750 [4]; lethal dose (5 μg/ml), two hours): dramatic increase | chromosomes exhibiting doughnut or ring shape (E. coli strain JP750 [4]): 98% | cytological profile (FIG. 1 summary) [2]: leads to a toroidal chromosome and wider cells

COc1ccc(Cl)c(C)c1C(=O)O[C@@H]1C[C@H](O[C@H]2[C@H](O)C[C@H](O[C@H]3CCC[C@@H]4[C@@H]3C=C[C@H]3CCCC/C=C/[C@@H]5C=C(C(=O)O)[C@H](C)C[C@]56OC(=O)C(=C6O)OC(=O)[C@@]43C)O[C@@H]2C)O[C@H](C)[C@H]1O [chlorothricin]
DAPI staining (E. coli imp strain): increased DAPI staining | antibacterial spectrum [5]: active against gram positive bacteria and the E. coli imp mutant

CC1=C[C@]2(C)/C=C(C)/C=C/C[C@@H](O)/C=C3C=C/C(=C4\C(=O)O[C@]2(C[C@@H]1C)C4=O)OC/3 [Spirohexenolide A]
DAPI staining intensity relative to untreated (WT) cells (E. coli imp strain): 5 × | antibacterial spectrum [5]: active against gram positive bacteria and the E. coli imp mutant

polymyxin B
cytological profile compared with reference (E. coli strain JP750 [4]; two hours at the MIC): cytological profile similar to CHIR-090

CC1=C(C(=O)O)N2C(=O)[C@@H](NC(=O)[C@H](N)c3ccccc3)[C@H]2SC1 [cephalexin]
cell length (E. coli strain JP750 [4]): elongated | cytological profile (FIG. 1 summary) [2]: produces elongated cells with multiple chromosomes | chromosome shape (E. coli strain JP750 [6]): chromosome shape is not affected
